Source: patent US20260345619A1 (Principia Biopharma Inc., priority 2023, published 2026)

Assay: Loss of asthma control (LOAC) events, 12-week ICS/LABA withdrawal study
Type: in vivo, human
Settings: 400 mg TID
From the text: The general construct of this 12-week Loss of Asthma Control (LOAC) study consisted of a 4-week standardized ICS/LABA background therapy stabilization phase, a 4or 5-week background therapy withdrawal phase and a 3- or 4-week no background therapy phase, followed by a 4-week post IMP treatment safety follow-up period at the beginning of which, pre-screening asthma controller medications are restarted. Participants had access to short-acting β-agonist (SABA) reliever medication at all times during the protocol.
The primary endpoint was the proportion of patients with LOAC. The key secondary endpoint for the study was change in pre-bronchodilator FEV1 from baseline at EOT.
The primary endpoint was proportion of participants with LOAC during the 12-week treatment period.
Note that if the number of participants in some regions was too low, these regions may have been pooled with other regions. This strategy also applied to all the rest of the analyses where region was one of the covariates.
To assess the consistency in treatment effects across different subgroup levels, subgroup analyses were to be performed for the primary efficacy endpoint with respect to age group, gender, region, and other factors.
Secondary endpoints included pre-bronchodilator FEV1 change from baseline at EOT, ACQ-5 score change from baseline, and AQLQ score change from baseline. Other secondary and exploratory endpoints are described in Table 2.

[1] = all others than low EOS and low FeNO
[2] = baseline IgA <Median (2190) mg/L
[3] = baseline IgA ≥Median (2190) mg/L
[4] = baseline IgE <Median (121.85) IU/mL
[5] = baseline IgE ≥Median (121.85) IU/mL
[6] = baseline pre-BD FEV1 <Median (2.1955) L
[7] = baseline pre-BD FEV1 ≥Median (2.1955) L
[8] = blood eosinophil level 1 <0.15 (10^9/L)
[9] = blood eosinophil level 1 ≥0.15-<0.3 (10^9/L)
[10] = blood eosinophil level 1 ≥0.3 (10^9/L)
[11] = blood eosinophil level 2 <0.3 (10^9/L)
[12] = blood eosinophil level 2 ≥0.3 (10^9/L)
[13] = low EOS (<0.15) and low FeNO (<25)
[14] = percent predicted FEV1 group 1 <Median (77)
[15] = percent predicted FEV1 group 1 ≥Median (77)
[16] = percent predicted FEV1 group 2 <80
[17] = percent predicted FEV1 group 2 ≥80

CC(C)(C=C(C#N)C(=O)N1CCC[C@@H](n2nc(-c3ccc(Oc4ccccc4)cc3F)c3c(N)ncnc32)C1)N1CCN(C2COC2)CC1 (mixture of isomers) [rilzabrutinib, (R)-2-[3-[4-amino-3-(2-fluoro-4-phenoxy-phenyl)pyrazolo[3,4-d]pyrimidin-1-yl]piperidine-1-carbonyl]-4-methyl-4-[4-(oxetan-3-yl)piperazin-1-yl]pent-2-enenitrile]
OR vs. placebo [1]: 0.752
RD vs. Placebo [1]: −0.049
LOAC, number (atopic medical conditions: No): 8
OR vs. placebo (atopic medical conditions: No): 0.493
RD vs. Placebo (atopic medical conditions: No): −0.130
LOAC, number (atopic medical conditions: Yes): 4
OR vs. placebo (atopic medical conditions: Yes): 0.821
RD vs. Placebo (atopic medical conditions: Yes): −0.031
LOAC, number (background ICS dose High): 6
OR vs. placebo (background ICS dose High): 0.911
RD vs. Placebo (background ICS dose High): −0.011
LOAC, number (background ICS dose Medium): 6
OR vs. placebo (background ICS dose Medium): 0.421
RD vs. Placebo (background ICS dose Medium): −0.173
LOAC, number (baseline ACQ-5 >2): 6
OR vs. placebo (baseline ACQ-5 >2): 0.346
RD vs. Placebo (baseline ACQ-5 >2): −0.181
LOAC, number (baseline ACQ-5 ≤2): 6
OR vs. placebo (baseline ACQ-5 ≤2): 1.162
RD vs. Placebo (baseline ACQ-5 ≤2): 0.025
LOAC, number (baseline FeNO level 1 <25 ppb): 9
OR vs. placebo (baseline FeNO level 1 <25 ppb): 0.567
RD vs. Placebo (baseline FeNO level 1 <25 ppb): −0.065
LOAC, number (baseline FeNO level 1 ≥25 ppb): 3
OR vs. placebo (baseline FeNO level 1 ≥25 ppb): 0.798
RD vs. Placebo (baseline FeNO level 1 ≥25 ppb): −0.053
LOAC, number (baseline FeNO level 2 <35 ppb): 9
OR vs. placebo (baseline FeNO level 2 <35 ppb): 0.655
RD vs. Placebo (baseline FeNO level 2 <35 ppb): −0.029
LOAC, number (baseline FeNO level 2 ≥35 ppb): 3
OR vs. placebo (baseline FeNO level 2 ≥35 ppb): 0.628
RD vs. Placebo (baseline FeNO level 2 ≥35 ppb): −0.094
LOAC, number [2]: 6
OR vs. placebo [2]: 0.774
RD vs. Placebo [2]: −0.011
LOAC, number [3]: 6
OR vs. placebo [3]: 0.514
RD vs. Placebo [3]: −0.120
LOAC, number (baseline IgE <100 IU/mL): 4
OR vs. placebo (baseline IgE <100 IU/mL): 0.602
RD vs. Placebo (baseline IgE <100 IU/mL): −0.085
LOAC, number [4]: 6
OR vs. placebo [4]: 0.681
RD vs. Placebo [4]: −0.070
LOAC, number (baseline IgE ≥100 IU/mL): 8
OR vs. placebo (baseline IgE ≥100 IU/mL): 0.522
RD vs. Placebo (baseline IgE ≥100 IU/mL): −0.122
LOAC, number [5]: 6
OR vs. placebo [5]: 0.510
RD vs. Placebo [5]: −0.122
LOAC, number [6]: 7
OR vs. placebo [6]: 0.827
RD vs. Placebo [6]: −0.036
OR vs. placebo [7]: 0.362
RD vs. Placebo [7]: −0.176
LOAC, number [8]: 6
OR vs. placebo [8]: 0.716
RD vs. Placebo [8]: −0.062
LOAC, number [9]: 4
OR vs. placebo [9]: 1.619
RD vs. Placebo [9]: 0.072
LOAC, number [10]: 2
OR vs. placebo [10]: 0.139
RD vs. Placebo [10]: −0.363
LOAC, number [11]: 10
OR vs. placebo [11]: 1.019
RD vs. Placebo [11]: 0.047
LOAC, number [12]: 2
OR vs. placebo [12]: 0.146
RD vs. Placebo [12]: −0.350
LOAC, number [13]: 4
OR vs. placebo [13]: 0.441
RD vs. Placebo [13]: −0.157
LOAC, number [14]: 4
OR vs. placebo [14]: 0.452
RD vs. Placebo [14]: −0.129
LOAC, number [15]: 8
OR vs. placebo [15]: 0.599
RD vs. Placebo [15]: −0.078
LOAC, number [16]: 7
OR vs. placebo [16]: 0.736
RD vs. Placebo [16]: −0.047
OR vs. placebo [17]: 0.429
RD vs. Placebo [17]: −0.139
LOAC, number (smoking history Former): 2
OR vs. placebo (smoking history Former): 0.500
RD vs. Placebo (smoking history Former): −0.167
LOAC, number (smoking history Never): 10
OR vs. placebo (smoking history Never): 0.551
RD vs. Placebo (smoking history Never): −0.102
